From US20260209219A1, “SUBSTITUTED TETRAHYDROPYRROLO-PYRIDINONE COMPOUNDS AND THEIR USE IN TREATING MEDICAL CONDITIONS” (Karuna Therapeutics, Inc., priority 2022, published 2026)

Molecular target: T1, human M4 receptor (Homo sapiens, UniProt P08173)
T1 construct: expressed in transfected cells; host or cells: CHO-K1 cells (membrane preparation)
T1 sequence (P08173 1-479): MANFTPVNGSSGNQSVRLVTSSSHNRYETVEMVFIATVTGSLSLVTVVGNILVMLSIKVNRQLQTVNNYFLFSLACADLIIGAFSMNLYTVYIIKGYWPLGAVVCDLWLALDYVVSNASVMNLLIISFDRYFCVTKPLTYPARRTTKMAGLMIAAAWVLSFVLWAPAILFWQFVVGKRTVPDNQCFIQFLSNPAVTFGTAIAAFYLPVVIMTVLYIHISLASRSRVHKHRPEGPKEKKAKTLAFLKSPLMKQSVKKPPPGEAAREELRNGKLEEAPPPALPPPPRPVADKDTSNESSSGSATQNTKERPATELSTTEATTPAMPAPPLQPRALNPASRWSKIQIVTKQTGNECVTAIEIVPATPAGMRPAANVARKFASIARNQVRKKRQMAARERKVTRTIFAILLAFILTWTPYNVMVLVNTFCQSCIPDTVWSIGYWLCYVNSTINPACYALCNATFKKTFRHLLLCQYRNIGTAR
Assay: M4 GTPγS PAM assay
Type: biochemical
Details: membranes of CHO-K1 cells stably expressing human M4; EC20 acetylcholine 40 nM
Procedure: The M4 GTPγS PAM method was used. Membranes were prepared for GTPgS binding assays from CHO-K1 cells stably expressing human M4 receptor. Briefly, cells were grown in 5-layer cell culture flasks. Cells were washed with 50 mL of PBS and then dissociated with 0.05% trypsin. Dissociated cells were then collected by centrifugation at 650×g for 8 minutes at 4° C. Pellets were washed again in PBS by centrifugation and resuspended in 30 mL of 20 mM HEPES, 10 mM EDTA, pH 7.4. After sitting on ice for 30 min, membranes were collected by centrifugation at 50000×g for 15′ at 4° C., resuspended in 30 mL of 20 mM HEPES, 0.1 mM EDTA, pH 7.4 and collected again by centrifugation. Pellets were then washed twice by centrifugation in 30 mL of 20 mM HEPES, pH 7.4, and stored at −80° C. until the day of the assay. On the day of the assay, pellets were thawed on ice and resuspended in 1 mL of 20 mM HEPES, pH 7.4, 10 mM MgCl2, 100 mM NaCl using dounce homogenization. Membrane protein concentration is determined by BCA protein assay (Promega, Madison, WI) according to Promega guidelines.
On the day of the assay, serial dilutions of test PAM compounds were brought up in assay buffer (20 mM HEPES, 10 mM MgCl2, 100 mM NaCl) at 4× final assay concentration. […] of membrane homogenates (containing […] of membrane protein) were prepared in assay buffer supplemented with GDP at 4× final assay concentration (final assay concentration of GDP is 5 μM for M2 and 0.1 μM for M4) and dispensed into 96 well polypropylene, U-bottom Greiner plates. […] of vehicle or test PAM compound at 4× of final assay concentration diluted in the assay buffer were added to membrane and plates are incubated for 10-15 minutes at room temperature with gentle shaking. Then, […] of EC20 acetylcholine in assay buffer at 4× final assay concentration was added to assay plates (EC20 final assay concentrations was 40 nM for human M4).
Plates were then incubated, with shaking, for an additional 10-15 minutes. 25 mL of 0.4 nM ^35S-GTP (Perkin Elmer, Waltham, MA) in assay buffer was added to assay mixtures. The binding reaction is left on the shaker for 1 hour at room temperature. Membranes in assay reactions were then transferred to GF/C filter plates (Unifilter, Perkin Elmer) and washed three times using a FilterMate Harvester (Perkin Elmer) with cold assay buffer containing no GDP. Filter plates were then dried at 40° C. overnight followed by the addition of […] of Beta Plate Scintillation liquid. Plates are top and bottom sealed before being read on TopCount scintillation counter (Perkin Elmer, Waltham, MA).

Row | Compound | EC50 [nM]
1 | Cc1cc(=O)n(C)c2c1CN(C(=O)CC1CC1c1ccc(C(F)(F)F)cc1)C2 (single isomer, unassigned) [Compound I-7] | < 100
2 | Cc1c2c(n(C)c(=O)c1F)CN(C(=O)CC1CC1c1ccc(C(F)(F)F)cc1)C2 (centres unmarked) [Compound I-26] | < 100
